Data: ChEMBL document CHEMBL2086223 (Bioorg Med Chem Lett, 2012)
Active and inactive are the calls of the source. The rule behind the calls is not given here.

Columns and labels:
[1] = (§1) Half life in rat liver microsomes
Homo sapiens = species: Homo sapiens; assay: Selectivity ratio of Ki for human 5HT3A receptor to Ki for human 5HT4c receptor
[2] = biological target: T1, 5-hydroxytryptamine receptor 4 (Homo sapiens, UniProt Q13639); assay: Agonist activity at human recombinant 5HT4c receptor expressed in HEK293 cells at 10-fold physiological level assessed as accumulation of cAMP relative to 5HT; type: functional, cell-based
T1 sequence (Q13639 whole entry): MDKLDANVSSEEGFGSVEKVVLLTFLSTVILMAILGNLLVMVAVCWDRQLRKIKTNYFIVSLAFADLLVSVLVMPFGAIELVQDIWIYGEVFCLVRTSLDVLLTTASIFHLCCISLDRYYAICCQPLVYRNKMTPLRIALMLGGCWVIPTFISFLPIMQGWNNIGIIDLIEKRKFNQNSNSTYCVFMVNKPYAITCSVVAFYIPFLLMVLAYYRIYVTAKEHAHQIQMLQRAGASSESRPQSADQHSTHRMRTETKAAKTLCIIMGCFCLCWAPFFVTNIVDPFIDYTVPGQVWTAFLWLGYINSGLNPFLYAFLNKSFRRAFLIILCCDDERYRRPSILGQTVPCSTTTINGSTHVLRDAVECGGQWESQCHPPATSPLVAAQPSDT

[3] = biological target: T2, 5-hydroxytryptamine receptor 2C (Homo sapiens) (UniProt P28335); assay: Inhibition of 5HT2C receptor at 10 uM
T2 sequence (whole entry): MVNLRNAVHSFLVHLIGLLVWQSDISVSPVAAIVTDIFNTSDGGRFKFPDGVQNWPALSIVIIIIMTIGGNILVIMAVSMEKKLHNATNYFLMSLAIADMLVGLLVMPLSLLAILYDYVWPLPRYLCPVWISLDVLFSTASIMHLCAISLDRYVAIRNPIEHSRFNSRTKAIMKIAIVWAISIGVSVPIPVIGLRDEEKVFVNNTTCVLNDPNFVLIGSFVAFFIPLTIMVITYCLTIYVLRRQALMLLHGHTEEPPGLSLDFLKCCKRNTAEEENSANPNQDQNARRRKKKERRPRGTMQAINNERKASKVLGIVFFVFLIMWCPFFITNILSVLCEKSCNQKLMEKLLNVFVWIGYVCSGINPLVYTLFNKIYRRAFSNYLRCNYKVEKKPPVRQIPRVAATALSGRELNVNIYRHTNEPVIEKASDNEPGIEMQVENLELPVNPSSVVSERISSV

[4] = biological target: 5-hydroxytryptamine receptor 5A (Homo sapiens) (UniProt P47898); assay: Inhibition of 5HT5A receptor at 10 uM
5-hydroxytryptamine receptor 5A (Homo sapiens), sequence (P47898 whole entry): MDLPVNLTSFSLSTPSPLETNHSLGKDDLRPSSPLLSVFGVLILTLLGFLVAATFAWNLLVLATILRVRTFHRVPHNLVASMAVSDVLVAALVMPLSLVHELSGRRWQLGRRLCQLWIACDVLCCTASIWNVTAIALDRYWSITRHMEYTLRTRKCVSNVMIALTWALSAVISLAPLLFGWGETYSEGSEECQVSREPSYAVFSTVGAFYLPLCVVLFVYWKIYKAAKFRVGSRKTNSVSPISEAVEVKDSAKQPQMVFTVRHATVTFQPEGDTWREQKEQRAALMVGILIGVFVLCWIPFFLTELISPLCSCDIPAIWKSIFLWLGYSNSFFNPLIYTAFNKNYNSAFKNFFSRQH

in vivo [5] = conditions: Sprague-Dawley, rat, po, 5 mg/kg
[6] = biological target: 5-hydroxytryptamine receptor 6 (Homo sapiens) (UniProt P50406); assay: Inhibition of 5HT6 receptor at 10 uM
5-hydroxytryptamine receptor 6 (Homo sapiens), sequence (P50406 whole entry): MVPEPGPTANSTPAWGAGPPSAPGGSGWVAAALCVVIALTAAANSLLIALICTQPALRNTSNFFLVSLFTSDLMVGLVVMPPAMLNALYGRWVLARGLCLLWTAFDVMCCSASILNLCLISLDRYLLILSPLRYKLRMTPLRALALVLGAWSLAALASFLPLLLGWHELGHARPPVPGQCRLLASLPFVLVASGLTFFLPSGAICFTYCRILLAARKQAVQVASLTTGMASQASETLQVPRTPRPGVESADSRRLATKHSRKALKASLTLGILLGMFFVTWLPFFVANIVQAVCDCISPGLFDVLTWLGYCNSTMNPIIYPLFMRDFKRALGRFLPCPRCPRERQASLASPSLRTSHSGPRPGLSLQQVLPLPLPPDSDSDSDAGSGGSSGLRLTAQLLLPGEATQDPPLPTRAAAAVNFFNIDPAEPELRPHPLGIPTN

[7] = Half life in Sprague-Dawley rat at 5 mg/kg, po; type: ADME, organism-based; design: dose 5 mg/kg, route oral; conditions: in vivo
[8] = Elimination half life in healthy human administered QD; type: ADME, organism-based; conditions: in vivo, read-out: beta t1/2 (converted)
Rattus norvegicus = assay: Induction of 5HT4-receptor mediated esophagal relaxation in iv dosed Sprague-Dawley rat; type: functional
Cavia porcellus [9] = assay: Prokinetic activity in sc dosed guinea pig colon assessed as increase in distance traveled by carmine red dye after 60 mins relative to vehicle-treated control; type: functional, organism-based
[10] = biological target: 5-hydroxytryptamine receptor 1D (Homo sapiens) (UniProt P28221); assay: Inhibition of 5HT1D receptor at 10 uM
5-hydroxytryptamine receptor 1D (Homo sapiens), sequence (P28221 whole entry): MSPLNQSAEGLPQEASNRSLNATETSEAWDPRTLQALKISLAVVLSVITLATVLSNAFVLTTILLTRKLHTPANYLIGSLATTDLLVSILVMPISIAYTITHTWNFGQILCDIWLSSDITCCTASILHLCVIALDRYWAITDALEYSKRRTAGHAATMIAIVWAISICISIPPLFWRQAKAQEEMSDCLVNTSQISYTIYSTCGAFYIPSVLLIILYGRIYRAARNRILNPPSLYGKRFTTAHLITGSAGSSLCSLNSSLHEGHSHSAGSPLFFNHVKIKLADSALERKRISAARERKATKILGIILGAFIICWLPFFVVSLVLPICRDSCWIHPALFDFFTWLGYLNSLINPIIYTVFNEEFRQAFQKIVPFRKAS

[11] = biological target: T3, 5-hydroxytryptamine receptor 7 (Homo sapiens, UniProt P34969); assay: Inhibition of 5HT7 receptor at 10 uM
T3 sequence (P34969 whole entry): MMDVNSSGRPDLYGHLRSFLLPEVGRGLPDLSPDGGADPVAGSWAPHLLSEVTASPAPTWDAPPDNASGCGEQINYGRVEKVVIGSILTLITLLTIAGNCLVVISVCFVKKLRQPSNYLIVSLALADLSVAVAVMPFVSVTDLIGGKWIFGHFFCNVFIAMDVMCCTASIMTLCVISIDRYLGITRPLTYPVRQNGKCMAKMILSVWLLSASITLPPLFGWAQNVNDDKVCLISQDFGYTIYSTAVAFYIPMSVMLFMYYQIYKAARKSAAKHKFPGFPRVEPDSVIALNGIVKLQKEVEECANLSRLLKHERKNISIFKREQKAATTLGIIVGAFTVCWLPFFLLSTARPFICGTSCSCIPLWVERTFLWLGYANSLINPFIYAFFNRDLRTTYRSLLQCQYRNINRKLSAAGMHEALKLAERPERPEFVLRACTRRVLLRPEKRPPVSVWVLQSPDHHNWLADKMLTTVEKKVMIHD

[12] = biological target: T4, 5-hydroxytryptamine receptor 1A (Homo sapiens) (UniProt P08908); assay: Inhibition of 5HT1A receptor at 10 uM
T4 sequence (whole entry): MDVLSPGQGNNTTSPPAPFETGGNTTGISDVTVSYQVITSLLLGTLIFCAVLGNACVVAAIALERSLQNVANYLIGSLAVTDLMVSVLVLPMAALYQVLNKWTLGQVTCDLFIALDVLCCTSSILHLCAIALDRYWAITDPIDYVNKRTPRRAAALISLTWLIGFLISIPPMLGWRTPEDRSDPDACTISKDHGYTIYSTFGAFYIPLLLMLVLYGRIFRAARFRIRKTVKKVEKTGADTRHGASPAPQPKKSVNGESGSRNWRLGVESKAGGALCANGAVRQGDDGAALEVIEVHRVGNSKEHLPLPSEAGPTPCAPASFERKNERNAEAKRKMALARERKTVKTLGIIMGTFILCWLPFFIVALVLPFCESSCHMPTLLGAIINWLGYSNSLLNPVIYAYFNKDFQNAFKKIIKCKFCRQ

[13] = biological target: 5-hydroxytryptamine receptor 2B (Homo sapiens) (UniProt P41595); assay: Inhibition of 5HT2B receptor at 10 uM
5-hydroxytryptamine receptor 2B (Homo sapiens), sequence (P41595 whole entry): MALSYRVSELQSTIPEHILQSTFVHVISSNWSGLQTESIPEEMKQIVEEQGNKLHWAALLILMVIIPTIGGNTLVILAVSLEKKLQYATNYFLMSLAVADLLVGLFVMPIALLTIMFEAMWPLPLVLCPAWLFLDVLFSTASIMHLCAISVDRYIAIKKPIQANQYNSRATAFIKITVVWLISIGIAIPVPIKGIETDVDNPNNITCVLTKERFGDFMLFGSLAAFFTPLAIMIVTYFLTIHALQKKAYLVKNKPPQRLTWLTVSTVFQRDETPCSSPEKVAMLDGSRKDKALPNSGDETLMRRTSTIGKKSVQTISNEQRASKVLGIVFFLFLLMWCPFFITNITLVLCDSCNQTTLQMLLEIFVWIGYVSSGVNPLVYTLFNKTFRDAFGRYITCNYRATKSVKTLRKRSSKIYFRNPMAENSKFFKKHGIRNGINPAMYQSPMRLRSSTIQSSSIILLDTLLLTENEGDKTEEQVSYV

[14] = biological target: T5, 5-hydroxytryptamine receptor 3A (Homo sapiens) (UniProt P46098); assay: Inhibition of 5HT3A receptor at 10 uM
T5 sequence (whole entry): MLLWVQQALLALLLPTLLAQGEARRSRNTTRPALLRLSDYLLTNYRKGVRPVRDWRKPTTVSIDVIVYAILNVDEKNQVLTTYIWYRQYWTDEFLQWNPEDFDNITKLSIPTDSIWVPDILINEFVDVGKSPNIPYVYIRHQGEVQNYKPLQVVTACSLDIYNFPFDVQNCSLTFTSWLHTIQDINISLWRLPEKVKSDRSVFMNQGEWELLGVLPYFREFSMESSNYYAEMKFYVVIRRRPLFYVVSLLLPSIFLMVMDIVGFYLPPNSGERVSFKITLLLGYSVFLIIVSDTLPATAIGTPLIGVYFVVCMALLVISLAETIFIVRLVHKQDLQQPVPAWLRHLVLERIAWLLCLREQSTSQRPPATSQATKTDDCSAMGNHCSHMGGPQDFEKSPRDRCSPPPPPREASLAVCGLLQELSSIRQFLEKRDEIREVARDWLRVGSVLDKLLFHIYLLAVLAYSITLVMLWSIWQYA

in vivo [15] = conditions: Sprague-Dawley, rat, po, 5 mg/kg; remark: listed apart in the source
Cavia porcellus [16] = assay: Prokinetic activity in guinea pig colon assessed as decrease in carmine red dye transit time at 0.3 mg/kg, sc relative to vehicle-treated control; type: functional, organism-based; design: dose 0.3 mg/kg
[17] = biological target: 5-hydroxytryptamine receptor 4 (Cavia porcellus, UniProt O70528); assay: Agonist activity at 5HT4 receptor in guinea pig colonic longitudinal muscle/myenteric plexus assessed as contraction
5-hydroxytryptamine receptor 4 (Cavia porcellus, UniProt O70528), sequence (O70528 whole entry): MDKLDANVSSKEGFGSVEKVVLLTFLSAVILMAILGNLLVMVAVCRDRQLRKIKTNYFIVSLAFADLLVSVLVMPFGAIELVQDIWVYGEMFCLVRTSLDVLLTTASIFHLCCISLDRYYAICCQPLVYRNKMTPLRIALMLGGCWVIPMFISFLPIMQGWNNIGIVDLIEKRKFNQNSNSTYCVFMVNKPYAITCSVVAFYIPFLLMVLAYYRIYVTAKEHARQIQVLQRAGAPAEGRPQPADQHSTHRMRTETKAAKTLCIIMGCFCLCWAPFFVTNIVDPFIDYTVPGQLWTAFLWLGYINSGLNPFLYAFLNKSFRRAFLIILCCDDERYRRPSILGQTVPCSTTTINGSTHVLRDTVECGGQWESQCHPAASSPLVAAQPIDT

[18] = biological target: 5-hydroxytryptamine receptor 1B (Homo sapiens) (UniProt P28222); assay: Inhibition of 5HT1B receptor at 10 uM
5-hydroxytryptamine receptor 1B (Homo sapiens), sequence (P28222 whole entry): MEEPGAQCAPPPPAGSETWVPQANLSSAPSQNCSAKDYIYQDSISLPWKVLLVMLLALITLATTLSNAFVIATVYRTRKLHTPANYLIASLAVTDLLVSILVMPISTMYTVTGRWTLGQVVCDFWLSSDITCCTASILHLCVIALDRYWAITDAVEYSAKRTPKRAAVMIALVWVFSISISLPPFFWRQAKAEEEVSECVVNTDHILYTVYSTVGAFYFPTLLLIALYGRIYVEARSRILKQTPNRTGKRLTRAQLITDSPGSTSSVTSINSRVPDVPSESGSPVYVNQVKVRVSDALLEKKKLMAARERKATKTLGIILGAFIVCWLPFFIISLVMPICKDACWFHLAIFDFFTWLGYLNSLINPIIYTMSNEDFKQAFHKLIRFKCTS

[19] = biological target: T3, 5-hydroxytryptamine receptor 7; assay: Binding affinity to 5HT7 receptor
[20] = biological target: 5-hydroxytryptamine receptor 2A (Homo sapiens) (UniProt P28223); assay: Inhibition of 5HT2A receptor at 10 uM
5-hydroxytryptamine receptor 2A (Homo sapiens), sequence (P28223 whole entry): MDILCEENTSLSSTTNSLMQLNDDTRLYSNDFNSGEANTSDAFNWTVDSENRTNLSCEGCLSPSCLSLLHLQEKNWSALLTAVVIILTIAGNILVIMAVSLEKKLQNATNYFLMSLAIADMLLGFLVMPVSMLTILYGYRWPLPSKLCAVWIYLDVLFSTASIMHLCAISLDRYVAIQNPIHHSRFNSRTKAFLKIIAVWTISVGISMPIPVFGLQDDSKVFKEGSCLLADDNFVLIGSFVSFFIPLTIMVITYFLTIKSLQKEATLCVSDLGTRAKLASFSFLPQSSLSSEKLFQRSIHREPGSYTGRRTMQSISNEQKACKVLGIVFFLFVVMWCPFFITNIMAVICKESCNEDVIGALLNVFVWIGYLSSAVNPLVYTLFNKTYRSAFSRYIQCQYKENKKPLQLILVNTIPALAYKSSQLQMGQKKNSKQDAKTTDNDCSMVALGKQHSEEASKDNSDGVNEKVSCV

[21] = biological target: T1, 5-hydroxytryptamine receptor 4
[22] = biological target: T1, 5-hydroxytryptamine receptor 4; assay: biochemical
Description: Displacement of [3H]GR113808 from human recombinant 5HT4c receptor expressed in HEK293 cells

[23] = Permeability across human Caco2 cells; conditions: Caco-2
hERG (KCNH2) = hERG (KCNH2) (Homo sapiens, UniProt Q12809); assay: Inhibition of human ERG expressed in CHO cells at 3 uM; conditions: CHO cells expressing human ERG
hERG (KCNH2), sequence (Q12809 whole entry): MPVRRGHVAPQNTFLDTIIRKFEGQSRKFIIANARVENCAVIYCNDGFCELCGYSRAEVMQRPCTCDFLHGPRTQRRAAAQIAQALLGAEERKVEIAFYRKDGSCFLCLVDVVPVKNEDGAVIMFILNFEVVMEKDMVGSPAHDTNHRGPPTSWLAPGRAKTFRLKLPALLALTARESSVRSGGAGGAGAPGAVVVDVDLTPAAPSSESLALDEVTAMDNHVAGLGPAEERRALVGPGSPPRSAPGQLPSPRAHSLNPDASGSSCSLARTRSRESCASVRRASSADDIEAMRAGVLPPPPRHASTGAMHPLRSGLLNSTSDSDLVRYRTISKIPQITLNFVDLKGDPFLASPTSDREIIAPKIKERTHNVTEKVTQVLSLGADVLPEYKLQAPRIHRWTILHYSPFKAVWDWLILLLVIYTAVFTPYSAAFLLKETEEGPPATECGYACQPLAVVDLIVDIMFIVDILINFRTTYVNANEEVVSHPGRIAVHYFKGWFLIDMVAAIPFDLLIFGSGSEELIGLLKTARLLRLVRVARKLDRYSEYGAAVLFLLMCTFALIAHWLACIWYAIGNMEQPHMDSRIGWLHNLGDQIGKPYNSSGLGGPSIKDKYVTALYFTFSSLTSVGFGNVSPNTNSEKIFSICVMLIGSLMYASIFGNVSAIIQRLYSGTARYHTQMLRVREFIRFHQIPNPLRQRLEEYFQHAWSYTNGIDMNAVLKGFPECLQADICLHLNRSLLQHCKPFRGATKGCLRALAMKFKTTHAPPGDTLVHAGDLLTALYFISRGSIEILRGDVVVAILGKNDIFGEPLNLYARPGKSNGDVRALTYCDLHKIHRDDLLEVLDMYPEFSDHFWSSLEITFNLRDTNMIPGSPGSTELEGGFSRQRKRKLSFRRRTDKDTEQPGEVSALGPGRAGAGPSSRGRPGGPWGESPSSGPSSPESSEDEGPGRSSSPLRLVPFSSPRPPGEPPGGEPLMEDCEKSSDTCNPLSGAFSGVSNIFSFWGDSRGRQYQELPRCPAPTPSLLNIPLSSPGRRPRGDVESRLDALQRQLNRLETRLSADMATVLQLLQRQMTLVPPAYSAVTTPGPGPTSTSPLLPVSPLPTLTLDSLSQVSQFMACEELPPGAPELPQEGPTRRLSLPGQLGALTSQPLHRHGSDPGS

Liver microsomes = assay: as §1; conditions: microsomes

Row | Structure (SMILES) | half-life ([1]; liver microsomes) [h] | Ratio Ki (Homo sapiens) | Intrinsic activity [2] | EC50 [21] [nM] | Ki [22] [nM] | Papp [23] [×10⁻⁶ cm/s] | also measured
1 | CC(=O)N1CCN(CCN2[C@@H]3CC[C@H]2C[C@@H](NC(=O)c2nn(C(C)C)c4ccccc24)C3)CC1 | > 1.5 | 980 | – | – | – | – | –
2 | CC(C)n1c(=O)c(C(=O)N[C@H]2C[C@H]3CC[C@@H](C2)N3C[C@H](O)CN(C)S(C)(=O)=O)cc2ccccc21 | > 1.5 | – | 97% | – | – | – | –
3 | CC(C)n1c(=O)c(C(=O)N[C@H]2C[C@H]3CC[C@@H](C2)N3C[C@@H](O)CN(C)S(C)(=O)=O)cc2ccccc21 | > 1.5 | – | 95% | – | – | – | inhibition [3]: < 50%; inhibition [4]: < 50%; Cmax (in vivo [5]): 160 ng/mL; inhibition [6]: < 50%; half-life [7]: 1.9 h; half-life [8]: 12 h; Activity (Rattus norvegicus): Dose-dependent effect; ED50 (Rattus norvegicus): 0.025 mg/kg; Activity (Cavia porcellus [9]): Active; inhibition [10]: < 50%; inhibition [11]: < 50%; inhibition [12]: < 50%; inhibition [13]: < 50%; inhibition [14]: < 50%; AUC(0-t) (in vivo [15]): 460 ng·h/mL; Activity (Cavia porcellus [16]): Active; EC50 [17]: 12.6 nM; inhibition [18]: < 50%; Ki [19]: < 100 nM; inhibition [20]: < 50%
4 | CC(C)n1c(=O)c(C(=O)N[C@H]2C[C@H]3CC[C@@H](C2)N3C[C@@H](O)CN2CCN(S(C)(=O)=O)CC2)cc2ccccc21 | – | 7400 | 114% | – | – | – | half-life ([1]; microsomes): > 1.5 h
5 | CNC(=O)N(C)CC(O)CN1[C@@H]2CC[C@H]1C[C@@H](NC(=O)c1cc3ccccc3n(C(C)C)c1=O)C2 (mixture of isomers) | – | 870 | 95% | 31.6 | 100 | – | –
6 | CC(C)n1c(=O)c(C(=O)N[C@H]2C[C@H]3CC[C@@H](C2)N3CC(O)CN(C)C(=O)N(C)C)cc2ccccc21 (mixture of isomers) | > 1.5 | 260 | 87% | 20 | 50.1 | 33 | inhibition at 3 µM (hERG (KCNH2)): 64%
7 | CC(C)n1c(=O)c(C(=O)N[C@H]2C[C@H]3CC[C@@H](C2)N3CC(O)CN(C)S(C)(=O)=O)cc2ccccc21 (mixture of isomers) | > 1.5 | – | 96% | – | – | – | –
8 | COc1cc(N)c(Cl)cc1C(=O)N[C@H]1CCN(CCCOc2ccc(F)cc2)C[C@H]1OC (relative stereo) [REL-CISAPRIDE] | – | – | 71 | – | – | – | t1/2 (Liver microsomes): 0.783 h
9 | CCCCCNC(=N)N/N=C/c1c[nH]c2ccc(OC)cc12 [TEGASEROD] | > 1.5 | 580 | 92% | 2.51 | – | – | ED50 (Rattus norvegicus): 0.011 mg/kg

Second part, led by results:

Row | half-life ([1]; liver microsomes) [h] | Ratio Ki (Homo sapiens) | Intrinsic activity [2] | EC50 [21] [nM] | Ki [22] [nM] | Papp [23] [×10⁻⁶ cm/s] | Structure (SMILES) | also measured
10 | > 1.5 | 2200 | 96% | 6.31 | 31.6 | 6 | CC(=O)NCC(O)CN1[C@@H]2CC[C@H]1C[C@@H](NC(=O)c1cc3ccccc3n(C(C)C)c1=O)C2 (mixture of isomers) | –
11 | > 1.5 | 1500 | 95% | 12.6 | 39.8 | 16 | CC(=O)N(C)CC(O)CN1[C@@H]2CC[C@H]1C[C@@H](NC(=O)c1cc3ccccc3n(C(C)C)c1=O)C2 (mixture of isomers) | inhibition at 3 µM (hERG (KCNH2)): 11%
12 | > 1.5 | 3300 | 82% | 5.01 | 15.8 | – | CC(C)n1c(=O)c(C(=O)N[C@H]2C[C@H]3CC[C@@H](C2)N3CC(O)CNC(N)=O)cc2ccccc21 (mixture of isomers) | –
13 | – | 1800 | 95% | 20 | 50.1 | 1 | CC(C)n1c(=O)c(C(=O)N[C@H]2C[C@H]3CC[C@@H](C2)N3CC(O)CN(C)C(N)=O)cc2ccccc21 (mixture of isomers) | half-life ([1]; microsomes): > 1.5 h
14 | > 1.5 | 2400 | 82% | 12.6 | 25.1 | – | CNC(=O)NCC(O)CN1[C@@H]2CC[C@H]1C[C@@H](NC(=O)c1cc3ccccc3n(C(C)C)c1=O)C2 (mixture of isomers) | –
15 | > 1.5 | 860 | – | – | 100 | 3 | CC(C)n1c(=O)c(C(=O)N[C@H]2C[C@H]3CC[C@@H](C2)N3CC(O)CNC(=O)N(C)C)cc2ccccc21 (mixture of isomers) | –
16 | – | 1600 | – | – | 50.1 | 35 | COC(=O)NCC(O)CN1[C@@H]2CC[C@H]1C[C@@H](NC(=O)c1cc3ccccc3n(C(C)C)c1=O)C2 (mixture of isomers) | half-life ([1]; microsomes): > 1.5 h; inhibition at 3 µM (hERG (KCNH2)): 74%
17 | > 1.5 | 710 | 84% | 10 | 39.8 | 35 | COC(=O)N(C)CC(O)CN1[C@@H]2CC[C@H]1C[C@@H](NC(=O)c1cc3ccccc3n(C(C)C)c1=O)C2 (mixture of isomers) | inhibition at 3 µM (hERG (KCNH2)): 40%
18 | – | 1200 | 107% | 7.94 | 20 | – | CC(C)n1c(=O)c(C(=O)N[C@H]2C[C@H]3CC[C@@H](C2)N3CC(O)CNS(C)(=O)=O)cc2ccccc21 (mixture of isomers) | inhibition at 3 µM (hERG (KCNH2)): 10%
